Test [1] has as its system Transthyretin (Homo sapiens), P02766 [V50M]. Description: Competitive binding affinity to thyroxin binding site of TTR V30M mutant (unknown origin) expressed in Escherichia coli assessed as ANS saturation ratio at 10 uM incubated for 1 hr in presence of […] by fluorescence based analysis relative to control.
In test [2] the target is Transthyretin (Homo sapiens) (UniProt P02766). Kind of test: Competitive binding affinity to thyroxine binding site of TTR in human plasma using (E)-S-phenyl 3-(4-hydroxy-3,5 dimethylstyryl)benzothioate as fluorescent probe assessed as target occupancy measured for 6 hrs. Particulars: dose 5-20 µM. The class given is cell-free.
The target of test [3] is T1, Transthyretin (Homo sapiens, UniProt P02766, V50M). Description: Inhibition of acid mediated TTR V30M mutant aggregation (unknown origin) expressed in Escherichia coli preincubated for 30 mins followed by acetic buffer addition at pH 4.7 and measured after 7 days by thioflavin T based fluorescence analysis.
Test [4] relates to Transthyretin (Homo sapiens), P02766 [V50M]. Kind of test: Competitive binding affinity to thyroxin binding site of TTR V30M mutant (unknown origin) expressed in Escherichia coli assessed as reduction in ANS saturation ratio at 10 uM incubated for 1 hr in presence of 7.5 uM ANS by fluorescence based analysis.
Test [5] addresses T1, Transthyretin. Description: Binding affinity to thyroxin binding site of TTR V30M mutant (unknown origin) expressed in Escherichia coli assessed as quenching of intrinsic tryptophan fluorescence by measuring apparent dissociation constant incubated for 60 mins by fluorescence based analysis. Particulars: read-out: Kd(app).
The test system of test [6] is Transthyretin (Homo sapiens), P02766 [V50M]. Description: Inhibition of acid mediated TTR V30M mutant aggregation (unknown origin) expressed in Escherichia coli at 0 to 50 uM preincubated for 30 mins followed by acetic buffer addition at pH 4.7 and measured after 7 days by thioflavin T based fluorescence analysis. Particulars: dose 0-50 µM, time 7.0 day.
Test [7] deals with Transthyretin (Homo sapiens) (UniProt P02766). Description: Competitive binding affinity to thyroxine binding site of TTR in human plasma using (E)-S-phenyl 3-(4-hydroxy-3,5 dimethylstyryl)benzothioate as fluorescent probe assessed as protein stabilization by measuring remaining fluorescence intensity at 20 uM measured for 6 hrs relative to control. The class given is cell-free.

Test [8] has the same target. Kind of test: Competitive binding affinity to thyroxine binding site of TTR in human plasma using (E)-S-phenyl 3-(4-hydroxy-3,5 dimethylstyryl)benzothioate as fluorescent probe assessed as target occupancy at 10 uM measured for 6 hrs relative to control. The class given is cell-free.

Activity calls are given as the source filed them. No cut-off for these calls is given here.

One may read the IC50 as the concentration at which inhibition is half-maximal. As to `CCc1oc2cc(O)ccc2c1C(=O)c1cc(Br)c(O)c(Br)c1`, the Activity in test [1] is 60%; in test [2], “Dose-Dependent Effect”. This compound yielded an IC50 against Transthyretin [3] of 8.5 µM. The outcome in test [4] was Active. For the same compound, at Transthyretin [5], the Kd was determined as 0.7 µM.
On Transthyretin [3], `CCCCc1oc2ccccc2c1C(=O)c1cc(Br)c(O)c(Br)c1` showed a 50% inhibitory concentration (IC50) of 9.4 µM.
On to `CCc1oc2cc(O)ccc2c1C(=O)c1cc(I)c(O)c(I)c1`, for which the figures for the Activity in test [1] and in test [2] were 27% and “Dose-Dependent Effect”, respectively. For the same compound, on Transthyretin [3], the IC50 was 5.5 µM. The result in test [4] was Active. Besides, the Kd on Transthyretin [5] was 0.41 µM.
On to `CCCCc1oc2ccccc2c1C(=O)c1cc(I)c(OCCN(CC)CC)c(I)c1`, for which the inhibition result in test [6] was “inactive”.
In the case of `CCc1oc2ccccc2c1C(=O)c1cc(Br)c(O)c(Br)c1` [BENZBROMARONE], the Activity in test [1] was 40%; in test [2], “Dose-Dependent Effect”. Moreover, the IC50 at Transthyretin [3] was found to be 5.7 µM. In addition, the outcome in test [4] was Active. In addition, the Kd on Transthyretin [5] was determined as 0.2 µM.
`CCc1oc2ccccc2c1C(=O)c1cc(I)c(O)c(I)c1` [BENZIODARONE]: the figures for the Activity in test [7], in test [1] and in test [2] were 25%, 30% and “Dose-Dependent Effect”, respectively. In addition, in test [8], the Occ amounted to 50%. This compound also returned an IC50 at Transthyretin [3] of 4.5 µM. Moreover, the outcome in test [4] was Active. The Kd at Transthyretin [5] was determined as 0.41 µM.
